This experiment concerns BDF1 mice, P388 leukemia ip, median survival T/C. As to the kind of experiment: NCI In Vivo Anticancer Drug Screen. Data for tumor model P388 Leukemia (intraperitoneal) in B6D2F1 (BDF1) mice. The conditions noted are these: endpoint: median survival time, higher = longer survival. The method in brief:
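Each value expresses how treatment altered survival: treated-mouse outcome over vehicle-mouse outcome, both groups bearing the transplanted tumour.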

The mark [1] stands for this setting: dose: 12.5 mg/kg/injection, schedule: Q01DX009 (ip), vehicle: saline.
The mark [2] stands for this setting: dose: 25.0 mg/kg/injection, schedule: Q01DX009 (ip), vehicle: saline.
The mark [3] stands for this setting: dose: 50.0 mg/kg/injection, schedule: Q01DX009 (ip), vehicle: saline.
[4] abbreviates: dose: 50.0 mg/kg/injection, schedule: Q04DX003 (ip), vehicle: saline.
[5] abbreviates: dose: 100.0 mg/kg/injection, schedule: Q04DX003 (ip), vehicle: saline.
Where [6] appears, read: dose: 12.5 mg/kg/injection, schedule: Q01DX009 (ip), vehicle: saline with Tween-80.
Where [7] appears, read: dose: 25.0 mg/kg/injection, schedule: Q01DX009 (ip), vehicle: saline with Tween-80.
Where [8] appears, read: dose: 50.0 mg/kg/injection, schedule: Q01DX009 (ip), vehicle: saline with Tween-80.
[9] abbreviates: dose: 6.25 mg/kg/injection, schedule: Q01DX009 (ip), vehicle: saline.
[10] abbreviates: dose: 25.0 mg/kg/injection, schedule: Q01DX009 (ip), vehicle: other.
The mark [11] stands for this setting: dose: 50.0 mg/kg/injection, schedule: Q01DX009 (ip), vehicle: other.

Where “and” joins values, the source holds several entries; their conditions need not be identical. Equal values may be shown once. Toxic doses and inconclusive results are not listed.

This note sets out measurements from PubChem BioAssay AID328 (DTP/NCI, 2004).

For the compound `CNC(=O)c1nc(C)c(C)nc1OCc1ccccc1`, the T/C is 100 % of control under setting [1]; 95 % of control and 124 % of control under setting [2]; 97 % of control and 111 % of control under setting [3]; 111 % of control under setting [4]; 106 % of control and 109 % of control (dose: 100.0 mg/kg/injection, schedule: Q01DX009 (ip), vehicle: saline); 100 % of control under setting [5]. Besides, the T/C is 91 % of control (dose: 200.0 mg/kg/injection, schedule: Q01DX009 (ip), vehicle: saline); 96 % of control (dose: 200.0 mg/kg/injection, schedule: Q04DX003 (ip), vehicle: saline); 97 % of control (dose: 300.0 mg/kg/injection, schedule: Q01DX009 (ip), vehicle: saline); 119 % of control (dose: 400.0 mg/kg/injection, schedule: Q01DX009 (ip), vehicle: saline); 88 % of control (dose: 400.0 mg/kg/injection, schedule: Q04DX003 (ip), vehicle: saline).
With `Cc1cc2nc3c(=O)[nH]c(=O)nc-3n(CC(O)C(O)C(O)CO)c2cc1C` (stereo not drawn), the T/C is, setting by setting: under setting [6], 102 % of control; under setting [7], 94 % of control; under setting [8], 107 % of control.
In the case of `Cc1ccc(N)c(CSc2ccccc2)c1`, the T/C by setting is: (dose: 50.0 mg/kg/injection, schedule: Q04DX002 (ip), vehicle: saline with Tween-80) 95 % of control; (dose: 100.0 mg/kg/injection, schedule: Q04DX002 (ip), vehicle: saline with Tween-80) 97 % of control; (dose: 200.0 mg/kg/injection, schedule: Q04DX002 (ip), vehicle: saline with Tween-80) 98 % of control.
Take `CC(Br)C(=O)c1ccc(OCc2ccccc2)cc1` (stereo not drawn): the T/C is, setting by setting: under setting [8], 117 % of control; (dose: 100.0 mg/kg/injection, schedule: Q01DX009 (ip), vehicle: saline with Tween-80) 119 % of control.
In the case of `COC1CCC(OC2C(C)C(O)(C(C)C(=O)O)OC(CC3CC(OC)C(C)C4(O3)OC(C)(C3CCC(C5CCC(C6OC(C)(O)C(C)C(OC)C6C)O5)O3)C(OC)C4C)C2(C)OC)OC1C` (stereo not drawn), the T/C (dose: 0.62 mg/kg/injection, schedule: Q01DX009 (ip), vehicle: saline) is 94 % of control and the T/C (dose: 1.25 mg/kg/injection, schedule: Q01DX009 (ip), vehicle: saline) was 96 % of control.
As to `CCOC(=O)C(N)C[S][Sn]([CH3])([CH3])[Cl]` (stereo not drawn), the T/C is 122 % of control under setting [9] and 124 % of control under setting [1].
As for `CCC1(O)CC(OC2CC(N(C)C)C(OC3CC(O)C(OC4CCC(=O)C(C)O4)C(C)O3)C(C)O2)c2c(cc3c(c2O)C(=O)c2c(O)ccc(O)c2C3=O)C1C(=O)OC` (stereo not drawn), the T/C (dose: 2.88 mg/kg/injection, schedule: Q04DX003 (ip), vehicle: water) is 181 % of control; the T/C (dose: 4.8 mg/kg/injection, schedule: Q04DX003 (ip), vehicle: water) was 236 % of control; the T/C (dose: 1:8.0 dilution, schedule: Q01DX009 (ip), vehicle: saline) was 173 % of control; the T/C (dose: 1:64.0 dilution, schedule: Q01DX009 (ip), vehicle: saline) was 116 % of control.
For the compound `CC/C(=C\c1ccc(Cl)cc1)[N+](=O)[O-]`, the T/C runs as follows: under setting [1], 97 % of control; under setting [2], 99 % of control; (dose: 25.0 mg/kg/injection, schedule: Q04DX003 (ip), vehicle: saline) 87 % of control; under setting [3], 99 % of control; under setting [4], 104 % of control; under setting [5], 104 % of control and 109 % of control.
Turning to `O=C(O)c1ccc2c3c(cccc13)CC2`, the T/C by setting is: (dose: 25.0 mg/kg/injection, schedule: Q01DX001 (ip), vehicle: saline sonified) 100 % of control; (dose: 50.0 mg/kg/injection, schedule: Q01DX001 (ip), vehicle: saline sonified) 100 % of control; (dose: 100.0 mg/kg/injection, schedule: Q01DX001 (ip), vehicle: saline sonified) 104 % of control.
For `Clc1ccc(-c2nc3ccccc3cc2N2CCCCC2)cc1`, the T/C is, setting by setting: (dose: 100.0 mg/kg/injection, schedule: Q01DX001 (ip), vehicle: other) 110 % of control; (dose: 200.0 mg/kg/injection, schedule: Q01DX001 (ip), vehicle: other) 105 % of control; (dose: 400.0 mg/kg/injection, schedule: Q01DX001 (ip), vehicle: other) 105 % of control.
Turning to `N/C(=N\OC(=O)NC(Cl)=C(Cl)Cl)c1ccc(Cl)cc1`, the T/C is, setting by setting: (dose: 50.0 mg/kg/injection, schedule: Q01DX005 (ip), vehicle: saline with Tween-80) 92 % of control; (dose: 100.0 mg/kg/injection, schedule: Q01DX005 (ip), vehicle: saline with Tween-80) 114 % of control.
Turning to `Nc1ccc(OCc2ccc(S(=O)(=O)F)c(Cl)c2)c(Cl)c1`, the T/C reads like this: (dose: 100.0 mg/kg/injection, schedule: Q01DX001 (ip), vehicle: saline) 103 % of control; (dose: 200.0 mg/kg/injection, schedule: Q01DX001 (ip), vehicle: saline) 100 % of control; (dose: 400.0 mg/kg/injection, schedule: Q01DX001 (ip), vehicle: saline) 92 % of control.
In the case of `Cc1cccc[n+]1CCC(N)=O`, the T/C reads like this: under setting [9], 92 % of control; under setting [1], 117 % of control; under setting [2], 103 % of control.
In the case of `CCN(Cc1ccc(Cl)c(Cl)c1)c1ccc2nc(N)nc(N)c2c1C`, the T/C by setting is: (dose: 1.56 mg/kg/injection, schedule: Q01DX009 (ip), vehicle: water) 105 % of control; (dose: 6.25 mg/kg/injection, schedule: Q01DX009 (ip), vehicle: water) 151 % of control; (dose: 12.5 mg/kg/injection, schedule: Q01DX009 (ip), vehicle: water) 98 % of control; (dose: 12.5 mg/kg/injection, schedule: Q04DX003 (ip), vehicle: Klucel (hydroxypropylcellulose) (HPC)) 107 % of control; (dose: 12.5 mg/kg/injection, schedule: Q04DX003 (ip), vehicle: water) 103 % of control and 118 % of control; (dose: 25.0 mg/kg/injection, schedule: Q01DX009 (ip), vehicle: water) 89 % of control. The T/C is 109 % of control (dose: 25.0 mg/kg/injection, schedule: Q04DX003 (ip), vehicle: Klucel (hydroxypropylcellulose) (HPC)); 115 % of control (dose: 50.0 mg/kg/injection, schedule: Q04DX003 (ip), vehicle: Klucel (hydroxypropylcellulose) (HPC)); 159 % of control and 189 % of control (dose: 50.0 mg/kg/injection, schedule: Q04DX003 (ip), vehicle: water); 88 % of control (dose: 100.0 mg/kg/injection, schedule: Q04DX003 (ip), vehicle: Klucel (hydroxypropylcellulose) (HPC)); 109 % of control (dose: 100.0 mg/kg/injection, schedule: Q04DX003 (ip), vehicle: water).
Regarding `O=C(C=C(C(F)(F)F)C(F)(F)F)c1cccc(Cl)c1`, the T/C (dose: 6.25 mg/kg/injection, schedule: Q01DX009 (ip), vehicle: saline with Tween-80) is 122 % of control and the T/C under setting [6] is 100 % of control.
Take `C=C(C)C(=O)O[C@@H]1C[C@@]2(C)O[C@@H]2C[C@H](O)/C(C)=C/[C@H]2OC(=O)C(=C)[C@@H]21`: the T/C runs as follows: (dose: 6.0 mg/kg/injection, schedule: Q01DX009 (ip), vehicle: saline + alcohol) 113 % of control; (dose: 12.0 mg/kg/injection, schedule: Q01DX009 (ip), vehicle: saline + alcohol) 109 % of control; (dose: 48.0 mg/kg/injection, schedule: Q01DX009 (ip), vehicle: saline + alcohol) 113 % of control.
Turning to `O=C(O)C(CCO)C(=O)C(F)(F)F` (stereo not drawn), the T/C reads like this: under setting [10], 98 % of control; under setting [11], 98 % of control; (dose: 100.0 mg/kg/injection, schedule: Q01DX009 (ip), vehicle: other) 91 % of control.
For `COC(=O)C(Cl)(Cl)N=Nc1c(Cl)cc(Cl)c(C)c1Cl`, the T/C under setting [7] is 119 % of control; the T/C under setting [8] is 124 % of control; the T/C (dose: 200.0 mg/kg/injection, schedule: Q01DX009 (ip), vehicle: saline with Tween-80) was 89 % of control.
For the compound `Cc1cc(C)c(N)c(Br)c1`, the T/C runs as follows: (dose: 12.5 mg/kg/injection, schedule: Q01DX009 (ip), vehicle: other) 90 % of control; under setting [10], 90 % of control; under setting [11], 114 % of control; (dose: 100.0 mg/kg/injection, schedule: Q04DX003 (ip), vehicle: other) 100 % of control.
